Laboratory results as given in patent US20080234262A1 (Wyeth, priority 2007, published 2008).
pIC50: −log10 of the molar value.

What was measured:
PI3K = PI3K (Homo sapiens, UniProt P42336); experiment: Fluorescence polarization assay for PI3K; format: biochemical; settings: PI3Kα; read-out: PI3Kα IC50;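 also: PI3K kinase reaction on PIP2 with ATP, 30-60 min, product sensed by GST-GRP with red probe in fluorescence polarization (mP), controls without enzyme and at zero time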
breast line MDA468 = experiment: In vitro cell culture growth assay (MTS), MDA468; format: cell-based, human; settings: Homo sapiens, 72 h, MDA468 cells, three days after drug treatment
In short: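 MDA468 or LNCap cells received inhibitors one day after plating and were grown for three days. Viable cell density read by MTS conversion, absorbance 490 nm, expressed as percent of control growth versus vehicle-treated cells on the same plate.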

prostate line LNCap = experiment: In vitro cell culture growth assay (MTS), LNCap; format: cell-based, human; settings: LNCap cells, three days after drug treatment

Chain of PI3K (P42336 whole entry): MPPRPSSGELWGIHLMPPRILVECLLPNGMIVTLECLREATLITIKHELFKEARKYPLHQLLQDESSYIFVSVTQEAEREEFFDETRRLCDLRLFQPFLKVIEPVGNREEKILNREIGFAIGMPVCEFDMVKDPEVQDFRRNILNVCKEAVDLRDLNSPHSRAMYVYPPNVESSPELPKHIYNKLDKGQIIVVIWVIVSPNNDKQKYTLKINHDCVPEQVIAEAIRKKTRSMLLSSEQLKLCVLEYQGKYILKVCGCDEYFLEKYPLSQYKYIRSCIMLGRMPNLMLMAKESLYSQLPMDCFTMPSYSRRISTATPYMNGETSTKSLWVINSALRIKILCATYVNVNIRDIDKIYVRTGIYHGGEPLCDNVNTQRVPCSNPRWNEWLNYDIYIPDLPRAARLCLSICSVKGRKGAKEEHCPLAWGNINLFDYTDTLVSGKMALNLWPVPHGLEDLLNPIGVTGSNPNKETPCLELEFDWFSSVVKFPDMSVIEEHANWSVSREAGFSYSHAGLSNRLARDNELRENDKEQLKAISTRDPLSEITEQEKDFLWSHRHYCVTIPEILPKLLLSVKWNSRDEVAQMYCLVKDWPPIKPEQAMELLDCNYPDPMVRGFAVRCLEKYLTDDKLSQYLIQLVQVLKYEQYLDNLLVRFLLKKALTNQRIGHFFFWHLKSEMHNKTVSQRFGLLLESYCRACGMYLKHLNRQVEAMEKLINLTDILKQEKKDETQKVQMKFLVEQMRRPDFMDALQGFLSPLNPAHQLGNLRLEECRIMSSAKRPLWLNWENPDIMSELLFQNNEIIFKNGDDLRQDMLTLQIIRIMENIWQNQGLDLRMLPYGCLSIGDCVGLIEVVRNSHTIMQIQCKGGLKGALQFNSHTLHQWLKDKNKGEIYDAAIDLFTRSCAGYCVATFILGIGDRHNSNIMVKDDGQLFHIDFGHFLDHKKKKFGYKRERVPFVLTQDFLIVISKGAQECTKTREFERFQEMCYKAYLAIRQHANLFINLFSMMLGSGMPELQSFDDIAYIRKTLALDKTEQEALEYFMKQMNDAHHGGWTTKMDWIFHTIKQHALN
Chain of PI3K (P27986 whole entry partner): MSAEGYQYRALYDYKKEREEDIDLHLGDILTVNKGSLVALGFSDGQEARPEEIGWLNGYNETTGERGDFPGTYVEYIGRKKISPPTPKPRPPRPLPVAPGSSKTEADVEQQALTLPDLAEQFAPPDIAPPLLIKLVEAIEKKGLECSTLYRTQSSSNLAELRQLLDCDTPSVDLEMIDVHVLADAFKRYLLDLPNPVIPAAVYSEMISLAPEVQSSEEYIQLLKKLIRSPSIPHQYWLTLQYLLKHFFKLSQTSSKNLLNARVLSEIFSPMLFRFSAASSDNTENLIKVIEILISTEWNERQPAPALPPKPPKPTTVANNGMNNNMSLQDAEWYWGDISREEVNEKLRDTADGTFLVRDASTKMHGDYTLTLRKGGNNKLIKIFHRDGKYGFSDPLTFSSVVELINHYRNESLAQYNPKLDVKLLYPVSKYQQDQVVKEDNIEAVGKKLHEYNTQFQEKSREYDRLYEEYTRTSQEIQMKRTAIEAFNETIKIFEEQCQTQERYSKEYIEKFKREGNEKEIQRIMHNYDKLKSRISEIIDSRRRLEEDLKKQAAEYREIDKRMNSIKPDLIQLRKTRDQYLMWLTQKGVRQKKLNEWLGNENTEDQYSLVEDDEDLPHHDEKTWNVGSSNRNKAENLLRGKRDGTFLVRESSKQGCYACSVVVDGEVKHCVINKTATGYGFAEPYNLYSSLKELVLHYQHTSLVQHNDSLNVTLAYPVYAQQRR

SMILES	pIC50 (PI3K)	pIC50 (breast line MDA468)	pIC50 (prostate line LNCap; Homo sapiens, LNCaP, 72 h)	pIC50 (prostate line LNCap)
O=C(Nc1ccncc1)Nc1ccc(-c2nc(N3CCOCC3)c3cnn(C4CCNCC4)c3n2)cc1 [Compound 780, 1-[4-(4-morpholin-4-yl-1-piperidin-4-yl-1H-pyrazolo[3,4-d]pyrimidin-6-yl)phenyl]-3-pyridin-4-ylurea]	7.80	5.82	5.66	
O=C(Nc1ccc(-c2nc(N3CCOCC3)c3cnn(C4CCN(C(=O)c5ccccc5)CC4)c3n2)cc1)Nc1cccnc1 [Compound 624, 1-{4-[1-(1-benzoylpiperidin-4-yl)-4-morpholin-4-yl-1H-pyrazolo[3,4-d]pyrimidin-6-yl]phenyl}-3-pyridin-3-ylurea]	7.47	> 7.57		> 7.57
c1ccc(CN2CCC(n3ncc4c(N5CCOCC5)nc(-c5cn[nH]c5)nc43)CC2)cc1 [Compound 189]	6.12	5.08	5.49	
Oc1cccc(-c2nc(N3CCOCC3)c3cnn(C4CCN(CC5CCCCC5)CC4)c3n2)c1 [Compound 17]	6.97	5.70	6.51	
Nc1ccc(-c2nc(N3CCOCC3)c3cnn(C4CCC5(CC4)OCCO5)c3n2)cc1 [Compound 565, 4-[1-(1,4-dioxaspiro[4.5]dec-8-yl)-4-morpholin-4-yl-1H-pyrazolo[3,4-d]pyrimidin-6-yl]aniline]	5.69	5.14	5.96	
O=C(NO)Nc1ccc(-c2nc(N3CCOCC3)c3cnn(C4CCN(Cc5ccccc5)CC4)c3n2)cc1 [Compound 555, 1-{4-[1-(1-benzylpiperidin-4-yl)-4-morpholin-4-yl-1H-pyrazolo[3,4-d]pyrimidin-6-yl]phenyl}-3-hydroxyurea]	6.70	5.96	7.00	
CNCCNC(=O)Nc1ccc(-c2nc(N3CCOCC3)c3cnn(C4CCN(Cc5cccnc5)CC4)c3n2)cc1 [Example 342, 1-[2-(methylamino)ethyl]-3-(4-{4-morpholin-4-yl-1-[1-(pyridin-3-ylmethyl)piperidin-4-yl]-1H-pyrazolo[3,4-d]pyrimidin-6-yl}phenyl)urea]	7.54	5.96	5.92	
CNC(=O)Nc1ccc(-c2nc(N3CCOCC3)c3cnn(C4CCN(Cc5ccncc5)CC4)c3n2)cc1 [Compound 426, 1-methyl-3-(4-{4-morpholin-4-yl-1-[1-(pyridin-4-ylmethyl)piperidin-4-yl]-1H-pyrazolo[3,4-d]pyrimidin-6-yl}phenyl)urea]	6.95	6.15	7.22	
CNCCOC(=O)N1CCC(n2ncc3c(N4CCOCC4)nc(-c4ccc(NC(=O)NC)cc4)nc32)CC1 [Compound 802, 2-(methylamino)ethyl 4-(6-{4-[(methylcarbamoyl)amino]phenyl}-4-morpholin-4-yl-1H-pyrazolo[3,4-d]pyrimidin-1-yl)piperidine-1-carboxylate]	6.74	5.26	5.00	
O=C(Nc1ccncc1)Nc1ccc(-c2nc(N3CCOCC3)c3cnn(C4CCN(C(=O)c5ccccc5)CC4)c3n2)cc1 [Example 384, 1-{4-[1-(1-benzoylpiperidin-4-yl)-4-morpholin-4-yl-1H-pyrazolo[3,4-d]pyrimidin-6-yl]phenyl}-3-pyridin-4-ylurea]	7.72	7.00	7.38	
O=[N+]([O-])c1ccc(-c2nc(N3CCOCC3)c3cnn(-c4ccccc4)c3n2)cc1 [Compound 119]	5.93	4.22	4.22	
CNC(=O)Nc1ccc(-c2nc(N3CCOCC3)c3cnn(C4CCN(Cc5ccccc5Cl)CC4)c3n2)cc1 [Example 396, 1-(4-{1-[1-(2-chlorobenzyl)piperidin-4-yl]-4-morpholin-4-yl-1H-pyrazolo[3,4-d]pyrimidin-6-yl}phenyl)-3-methylurea]	7.46	6.70	7.42	
O=C(NCCF)Nc1ccc(-c2nc(N3CCOCC3)c3cnn(C4CCN(Cc5cccnc5)CC4)c3n2)cc1F [Example 374, 1-(2-fluoroethyl)-3-(2-fluoro-4-{4-morpholin-4-yl-1-[1-(pyridin-3-ylmethyl)piperidin-4-yl]-1H-pyrazolo[3,4-d]pyrimidin-6-yl}phenyl)urea]	6.21	5.89	6.85	
COC(=O)N1CCC(n2ncc3c(N4CCOCC4)nc(-c4ccc(NC(=O)Nc5ccc(CCNCCN(C)C)cc5)cc4)nc32)CC1 [Compound 919, methyl 4-{6-[4-({[4-(2-{[2-(dimethylamino)ethyl]amino}ethyl)phenyl]carbamoyl}amino)phenyl]-4-morpholin-4-yl-1H-pyrazolo[3,4-d]pyrimidin-1-yl}piperidine-1-carboxylate]	8.10	6.38	7.51	
NCC(=O)Nc1ccc(-c2nc(N3CCOCC3)c3cn[nH]c3n2)cc1 [Compound 528, N-[4-(4-morpholin-4-yl-1H-pyrazolo[3,4-d]pyrimidin-6-yl)phenyl]glycinamide]	6.89	4.96	5.05	
O=C(O)CCC(=O)Nc1ccc(-c2nc(N3CCOCC3)c3cnn(C4CCN(Cc5ccccc5)CC4)c3n2)cc1 [Compound 81]	5.43	4.35	4.22	
O=C(c1ccc(Cl)cc1)N1CCC(n2ncc3c(N4CCOCC4)nc(-c4cccc(O)c4)nc32)CC1 [Compound 27]	7.39	5.62	6.26	
CNC(=O)Nc1ccc(-c2nc(N3CCOCC3)c3cnn(C4CCN(C(=O)c5ccc(Cl)cc5)CC4)c3n2)cc1 [Compound 608, 1-(4-{1-[1-(4-chlorobenzoyl)piperidin-4-yl]-4-morpholin-4-yl-1H-pyrazolo[3,4-d]pyrimidin-6-yl}phenyl)-3-methylurea]	7.38	6.40	7.28	
CCNC(=O)Nc1ccc(-c2nc(N3CCOCC3)c3cnn(C4CCN(C(=O)c5cccnc5)CC4)c3n2)cc1 [Example 307, 1-ethyl-3-(4-{4-morpholin-4-yl-1-[1-(pyridin-3-ylcarbonyl)piperidin-4-yl]-1H-pyrazolo[3,4-d]pyrimidin-6-yl}phenyl)urea]	6.36	6.70	7.22	
O=C(NO)Nc1ccc(-c2nc(N3CCOCC3)c3cnn(C4CCN(C(=O)c5cccnc5)CC4)c3n2)cc1 [Compound 550, 1-hydroxy-3-(4-{4-morpholin-4-yl-1-[1-(pyridin-3-ylcarbonyl)piperidin-4-yl]-1H-pyrazolo[3,4-d]pyrimidin-6-yl}phenyl)urea]	6.22	5.14	5.00	
Clc1ncccc1CN1CCC(n2ncc3c(N4CCOCC4)nc(-c4ccc5[nH]ccc5c4)nc32)CC1 [Compound 175]	6.34	5.70	5.96	
O=C(Nc1ccccc1)Nc1ccc(-c2nc(N3CCOCC3)c3cnn(C4CCN(Cc5cccnc5)CC4)c3n2)cc1 [Compound 586, 1-(4-{4-morpholin-4-yl-1-[1-(pyridin-3-ylmethyl)piperidin-4-yl]-1H-pyrazolo[3,4-d]pyrimidin-6-yl}phenyl)-3-phenylurea]	7.96	6.66	7.51	
CCOC(=O)Nc1ccc(-c2nc(N3CCOCC3)c3cnn(C4CCN(Cc5ccccc5)CC4)c3n2)cc1 [Compound 207, ethyl {4-[1-(1-benzylpiperidin-4-yl)-4-morpholin-4-yl-1H-pyrazolo[3,4-d]pyrimidin-6-yl]phenyl}carbamate]	6.18	5.28	5.52	
CNC(=O)Nc1ccc(-c2nc(N3CCOCC3)c3cnn(C4CCN(C(=O)OCCN(C)C)CC4)c3n2)cc1 [Compound 803, 2-(dimethylamino)ethyl 4-(6-{4-[(methylcarbamoyl)amino]phenyl}-4-morpholin-4-yl-1H-pyrazolo[3,4-d]pyrimidin-1-yl)piperidine-1-carboxylate]	6.76	6.00	6.00	
CS(=O)(=O)Nc1cccc(-c2nc(N3CCOCC3)c3cnn(-c4ccccc4)c3n2)c1 [Compound 116]	6.95	4.22	4.70	
COC(=O)N1CCC(n2ncc3c(N4CCOCC4)nc(-c4ccc(NC(=O)NCCO)cc4)nc32)CC1 [Compound 733, methyl 4-[6-(4-{[(2-hydroxyethyl)carbamoyl]amino}phenyl)-4-morpholin-4-yl-1H-pyrazolo[3,4-d]pyrimidin-1-yl]piperidine-1-carboxylate]	6.40	6.24	6.10	
NC(=O)c1ccc(-c2nc(N3CCOCC3)c3cnn(-c4ccccc4)c3n2)cc1 [Compound 100]	6.44	4.22	4.22	
CNC(=O)Nc1ccc(-c2nc(N3CCOCC3)c3cnn(C4CCN(C(=O)c5cccnc5C)CC4)c3n2)cc1 [Example 329, 1-methyl-3-[4-(1-{1-[(2-methylpyridin-3-yl)carbonyl]piperidin-4-yl}-4-morpholin-4-yl-1H-pyrazolo[3,4-d]pyrimidin-6-yl)phenyl]urea]	6.67	6.05	6.60	
CNC(=S)Nc1ccc(-c2nc(N3CCOCC3)c3cnn(C4CCN(C(=O)OC(C)C)CC4)c3n2)cc1 [Compound 831, isopropyl 4-[6-(4-{[(methylamino)carbonothioyl]amino}phenyl)-4-morpholin-4-yl-1H-pyrazolo[3,4-d]pyrimidin-1-yl]piperidine-1-carboxylate]	6.63	6.41	7.30	
CC(=O)NCc1cccc(-c2nc(N3CCOCC3)c3cnn(-c4ccccc4)c3n2)c1 [Compound 145]	6.23	4.68	5.26	
